# Experimental data reported in patent publication US11524966B1 (Valo Early Discovery, Inc., priority 2017, dated 2022).
# Biological target: T1, USP28 (His-tagged USP28-FL-mammalian) (Homo sapiens, UniProt Q96RU2)
# T1 construct: Expression of USP28 (1-1077)-TEV-6*His (pTT5 vector); made in house; host or cells: Expi293f cells (pTT5 vector)
# T1 sequence (Q96RU2 1-1077): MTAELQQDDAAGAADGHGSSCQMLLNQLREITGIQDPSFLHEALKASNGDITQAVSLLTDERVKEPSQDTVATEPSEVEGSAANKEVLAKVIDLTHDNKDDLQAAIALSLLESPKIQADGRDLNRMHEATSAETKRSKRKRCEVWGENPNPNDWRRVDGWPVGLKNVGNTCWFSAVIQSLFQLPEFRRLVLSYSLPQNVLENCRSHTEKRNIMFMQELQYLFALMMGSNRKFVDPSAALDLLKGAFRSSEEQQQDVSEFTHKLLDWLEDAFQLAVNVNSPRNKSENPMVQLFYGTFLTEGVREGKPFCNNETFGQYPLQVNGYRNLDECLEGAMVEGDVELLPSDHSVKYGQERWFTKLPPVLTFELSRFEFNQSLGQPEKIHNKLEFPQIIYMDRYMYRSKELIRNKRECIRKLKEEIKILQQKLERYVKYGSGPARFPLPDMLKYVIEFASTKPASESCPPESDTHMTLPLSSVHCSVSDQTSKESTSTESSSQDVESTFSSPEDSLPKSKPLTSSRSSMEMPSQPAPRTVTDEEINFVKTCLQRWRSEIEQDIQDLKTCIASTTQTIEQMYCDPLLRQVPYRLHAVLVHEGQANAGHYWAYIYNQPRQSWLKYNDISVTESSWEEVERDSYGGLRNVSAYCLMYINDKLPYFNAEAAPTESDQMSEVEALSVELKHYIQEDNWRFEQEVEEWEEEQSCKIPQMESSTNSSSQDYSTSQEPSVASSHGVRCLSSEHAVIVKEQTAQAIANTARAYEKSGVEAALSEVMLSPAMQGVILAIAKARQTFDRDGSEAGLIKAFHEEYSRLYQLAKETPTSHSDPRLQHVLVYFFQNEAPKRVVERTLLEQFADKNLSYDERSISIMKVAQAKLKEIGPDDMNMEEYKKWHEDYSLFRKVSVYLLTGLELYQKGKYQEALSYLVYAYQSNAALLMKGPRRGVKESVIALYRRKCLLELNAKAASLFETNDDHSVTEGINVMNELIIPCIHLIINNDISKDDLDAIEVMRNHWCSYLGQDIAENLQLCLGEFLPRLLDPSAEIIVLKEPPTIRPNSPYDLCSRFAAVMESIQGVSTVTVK
# Experiment: Ubiquitin-Rhodamine 110 Assay for USP28 Activity, Example A-1(a)
# Type: biochemical
# Details: Ubiquitin-Rhodamine 110 assay, Example A-1(a); read-out: USP28 A-1(a) IC50 range
# How it was run: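 Full-length His-tagged human USP28 (1-1077, Expi293f-expressed), […], with 25 nM Ub-Rh110 (<<Km) in pH 8.0 Tris buffer with BME, BGG, Triton X-100. 10-point dilutions (25 μM-1.3 nM), 45 min at room temperature, citric acid stop, fluorescence 485/535 nm; IC50 by 4-parameter fit.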
row,Structure (SMILES),IC50 [µM]
1,"CN[C@@H]1CN(c2ccc3c(n2)CC[C@H](NC(=O)c2sc4nc(C)ccc4c2N)C3)C[C@]1(C)O [Example 332, 3-amino-N-[(6S)-2-[(3S,4R)-3-hydroxy-3-methyl-4-(methylamino)pyrrolidin-1-yl]-5,6,7,8-tetrahydroquinolin-6-yl]-6-methylthieno[2,3-b]pyridine-2-carboxamide]",0.05 to 0.2
2,"CO[C@H]1CN(c2ccc3c(c2)OC[C@H](NC(=O)c2sc4nc(C)ccc4c2N)C3)[C@@H](C)[C@@H]1N [Example 333, 3-amino-N-[(3R)-7-[(2S,3S,4S)-3-amino-4-methoxy-2-methylpyrrolidin-1-yl]-3,4-dihydro-2H-1-benzopyran-3-yl]-6-methylthieno[2,3-b]pyridine-2-carboxamide]",0.001 to 0.05
3,"CO[C@H]1[C@H](N)CN(c2ccc3c(c2)OC[C@H](NC(=O)c2sc4nc(C)ccc4c2N)C3)[C@H]1C [Example 334, 3-amino-N-[(3R)-7-[(2S,3S,4R)-4-amino-3-methoxy-2-methylpyrrolidin-1-yl]-3,4-dihydro-2H-1-benzopyran-3-yl]-6-methylthieno[2,3-b]pyridine-2-carboxamide]",0.001 to 0.05
4,"CO[C@@H]1CN(c2ccc3c(c2)OC[C@H](NC(=O)c2sc4nc(C)ccc4c2N)C3)[C@H](C)[C@H]1N [Example 335, 3-amino-N-[(3R)-7-[(2R,3R,4R)-3-amino-4-methoxy-2-methylpyrrolidin-1-yl]-3,4-dihydro-2H-1-benzopyran-3-yl]-6-methylthieno[2,3-b]pyridine-2-carboxamide]",0.001 to 0.05
5,"CO[C@H]1[C@@H](C)N(c2ccc3c(c2)OC[C@H](NC(=O)c2sc4nc(C)ccc4c2N)C3)C[C@@H]1N [Example 336, 3-amino-N-[(3R)-7-[(2R,3R,4S)-4-amino-3-methoxy-2-methylpyrrolidin-1-yl]-3,4-dihydro-2H-1-benzopyran-3-yl]-6-methylthieno[2,3-b]pyridine-2-carboxamide]",0.001 to 0.05
6,"Cc1ccc2c(N)c(C(=O)N[C@H]3COc4cc(N5CC6(C5)OCC[C@H]6N)ccc4C3)sc2n1 [Example 337, 3-amino-N-[(3R)-7-[(8R)-8-amino-5-oxa-2-azaspiro[3.4]octan-2-yl]-3,4-dihydro-2H-1-benzopyran-3-yl]-6-methylthieno[2,3-b]pyridine-2-carboxamide]",0.001 to 0.05
7,"Cc1ccc2c(N)c(C(=O)N[C@H]3COc4cc(N5CC6(C5)OCC[C@@H]6N)ccc4C3)sc2n1 [Example 338, 3-amino-N-[(3R)-7-[(8S)-8-amino-5-oxa-2-azaspiro[3.4]octan-2-yl]-3,4-dihydro-2H-1-benzopyran-3-yl]-6-methylthieno[2,3-b]pyridine-2-carboxamide]",0.05 to 0.2
8,"Cc1ccc2c(N)c(C(=O)N[C@H]3COc4cc(N5C[C@@H](N)[C@@]6(CCO6)C5)ccc4C3)sc2n1 [Example 339, 3-amino-N-[(3R)-7-[(4R,8R)-8-amino-1-oxa-6-azaspiro[3.4]octan-6-yl]-3,4-dihydro-2H-1-benzopyran-3-yl]-6-methylthieno[2,3-b]pyridine-2-carboxamide]",0.001 to 0.05
9,"Cc1ccc2c(N)c(C(=O)N[C@H]3COc4cc(N5C[C@H](N)[C@]6(CCO6)C5)ccc4C3)sc2n1 [Example 340, 3-amino-N-[(3R)-7-[(4S,8S)-8-amino-1-oxa-6-azaspiro[3.4]octan-6-yl]-3,4-dihydro-2H-1-benzopyran-3-yl]-6-methylthieno[2,3-b]pyridine-2-carboxamide]",0.001 to 0.05
10,"COC[C@@]1(C)CN(c2ccc3c(n2)CC[C@H](NC(=O)c2sc4nc(C)ccc4c2N)C3)C[C@@H]1N [Example 341, 3-amino-N-[(6S)-2-[(3S,4R)-4-amino-3-(methoxymethyl)-3-methylpyrrolidin-1-yl]-5,6,7,8-tetrahydroquinolin-6-yl]-6-methylthieno[2,3-b]pyridine-2-carboxamide]",0.05 to 0.2
11,"COC[C@]1(C)CN(c2ccc3c(n2)CC[C@H](NC(=O)c2sc4nc(C)ccc4c2N)C3)C[C@@H]1N [Example 342, 3-amino-N-[(6S)-2-[(3R,4R)-4-amino-3-(methoxymethyl)-3-methylpyrrolidin-1-yl]-5,6,7,8-tetrahydroquinolin-6-yl]-6-methylthieno[2,3-b]pyridine-2-carboxamide]",0.05 to 0.2
12,"COC[C@]1(C)CN(c2ccc3c(n2)CC[C@H](NC(=O)c2sc4nc(C)ccc4c2N)C3)C[C@H]1N [Example 344, 3-amino-N-[(6S)-2-[(3R,4S)-4-amino-3-(methoxymethyl)-3-methylpyrrolidin-1-yl]-5,6,7,8-tetrahydroquinolin-6-yl]-6-methylthieno[2,3-b]pyridine-2-carboxamide]",0.05 to 0.2
